This note sets out measurements from patent publication US20220348565A1, “PHARMACEUTICAL COMPOUNDS” (SENTINEL ONCOLOGY LIMITED, priority 2019, published 2022).

Structures are written as SMILES. A value given as a limit tells only on which side of the number the result lay.

Data set [1] deals with panel of 48 cancer-derived cell lines. Description: Proliferation assay on diverse cancer cell line panel, CellTiter-Glo, 72 hours. It counts as cell-based. Conditions: for IC50: 72 hours, listed as A-2. As to the method:
Screening against diverse cancer cell lines was performed to identify tumour types displaying sensitivity to atropisomers A-1 and A-2. A panel of 48 cancer-derived cell lines was screened in a high-throughput proliferation assay using dilutions of atropisomers A-1/A-2. Cell lines that were screened included those representing cancer of the pancreas, large intestine/colorectum, lung, brain and nerves, and lymphoma and leukaemia cell lines. Cell lines were treated with serial half-log dilutions of compound and assayed 72 hours later for proliferation using CellTiter-Glo Assay (Promega). IC50 values were calculated by fitting the dose-response data using a nonlinear regression model.
Background: In ATP-based viability assays light output follows the ATP content of the culture.

A short description of data set [2]: Gravimetric solubility in water. Type of data set: physicochemical. Conditions: thermodynamic from solid; gravimetric, water. How it is done: The solubility in water of the salts was measured using a gravimetric solubility protocol.
1 ml of water was charged into crystallisation tubes. The solid was weighed into a tared glass vial, added in portions to the solutions and the vial weighed after each addition until a hazy solution was observed. The amount in mg was then calculated to give the solubility in mg/ml.
The solubility in water of the salts was measured using a gravimetric solubility protocol. Thus, 1 ml of water was charged into crystallisation tubes. The solid was weighed into a tared glass vial, added in portions to the solutions and the vial weighed after each addition until a hazy solution was observed. The amount in mg was then calculated to give the solubility in mg/mL.

In the next data set the test system is U87MG tumours. Nature of the data set: U87MG subcutaneous xenograft model. It counts as in vivo, Male athymic nude mice. The following applies: oral 100 mg/kg on days 1, 4 and 7; day 13. How it is done: Male athymic nude mice bearing U87MG tumours were given an oral dose of 100 mg/kg of atropisomer A-2 on days 1, 4 and 7 and the tumour volumes were measured over 20 days. Tumour volumes in a control group of tumour-bearing mice, who had received vehicle only at the same time points were also measured.

The target of a further data set is T1, PLK1 catalytic domain (Homo sapiens, UniProt P53350).
T1 construct: purchased DiscoverX; host or cells: T7 phage in E. coli (BL21-derived) or HEK-293
Nature of the data set: DiscoverX KinomeScreen competition binding assay, PLK1. Conditions: read-out: % Ctrl @ 3 μM. How it is done: Atropisomer A-2 has been tested for off-target activity against a panel of ninety-seven kinases distributed across the kinome at a concentration of 3 μM using the DiscoverX KinomeScreen assay. The DiscoverX KinomeScreen assay is a site-directed competition binding assay which measures the binding affinity of a compound to a kinase, by use of a solid supported control compound which can bind or capture the kinases in solution. In the absence of a kinase-inhibitor test compound, all of the kinase will bind to the solid support. If a kinase-inhibitor test compound is added to the assay mix, the amount of kinase binding to the solid support will be reduced, the extent of reduction being dependent on the potency of the test compound as a kinase inhibitor. […] For most assays, kinase-tagged T7 phage strains were grown in parallel in 24-well blocks in an E. coli host derived from the BL21 strain. […] The kinase concentration in the eluates was measured by qPCR. […] The strength of binding of the test molecule to the kinase can be expressed as the percent control (% Ctrl) The compound(s) were screened at 3000 nM concentration, and results for primary screen binding interactions are reported as ‘% Ctrl’, where lower numbers indicate stronger hits in the matrix on the following page(s). […]

The test system of a further data set is U87-Luc cells. Nature of the data set: U87-Luc orthotopic xenograft model. It counts as in vivo, male athymic nude mice. Conditions: oral 100 mg/kg on days 1, 4, 7, 10 and 13; Day 15. How it is done:
U87-Luc cells were intracerebrally implanted into the brains of male athymic nude mice and tumour growth was monitored by bioluminescent signal. In the treatment group animals were given an oral dose of 100 mg/kg of atropisomer A-2 on days 1, 4, 7, 10 and 13. The control group animals were given vehicle only.

In data set [3] the test system is HeLa cells stably expressing a Centrin1-GFP fusion protein. Description: Centriole number in Centrin1-GFP HeLa cells. It counts as cell-based. The following applies: 0.02 μM, 72 hours. How it is done: The effects of A-1 and A-2 on centrosome function were therefore investigated further. HeLa cells stably expressing a Centrin1-GFP fusion protein were seeded into 96-well plates overnight. Cells were treated with atropisomer A-1 or atropisomer A-2 (at concentrations of 0.02 μM in DMSO) or DMSO control for 72 hours and then imaged using a fluorescence microscope. Multiple cell fields were captured for each treatment condition, and the images were subsequently analysed manually. Centrin1-GFP specifically marks centrioles as discrete foci, and therefore can be used to quantitate centriole number per cell. Thus, for each treatment condition, 100 cells were analysed and the number of centrioles present in each cell was recorded. The data were then separated into bins (no centrioles, 1 centriole, 2 centrioles, and greater than 2 centrioles) and are shown in FIG. 11.

The test system of another data set is HCT116 xenograft tumours. Nature of the data set: HCT116 subcutaneous xenograft model. It counts as in vivo, Male athymic nude mice. The following applies: oral 100 mg/kg on days 1, 8 and 15; day 20. As to the method: Male athymic nude mice bearing HCT116 xenograft tumours were give an oral dose of 100 mg/kg atropisomer A-2 on days 1, 8 and 15 and the tumour volumes were measured over 3 weeks. Tumour volumes in a control group of tumour-bearing mice, who had received vehicle only at the same time points were also measured.

T1 sequence (P53350 53-305 limits assumed): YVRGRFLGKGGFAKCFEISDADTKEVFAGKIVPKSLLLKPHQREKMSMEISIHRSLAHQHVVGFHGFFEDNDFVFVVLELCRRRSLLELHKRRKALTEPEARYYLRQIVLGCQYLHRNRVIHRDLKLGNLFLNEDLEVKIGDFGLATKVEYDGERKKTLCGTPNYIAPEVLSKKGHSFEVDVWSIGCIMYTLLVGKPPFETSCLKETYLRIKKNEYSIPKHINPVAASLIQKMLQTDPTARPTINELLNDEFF

In general, IC50 refers to the concentration at which inhibition is half-maximal. As a reminder, the solubility is how much of the substance goes into solution per volume. Low readings indicate little dissolved substance, high ones much dissolved substance. A word on the TGI: it is the reduction of tumour growth relative to the control group. Higher therefore signals much slowing of growth. Regarding `CN(C)CCNC(=O)c1ccc(-c2ccc(-c3ccc(Cl)cc3)n2-c2ccccc2C(F)(F)F)cc1` (single isomer, unassigned) [Atropisomer A-2, 4-[5-(4-chlorophenyl)-1-[2-(trifluoromethyl)phenyl]pyrrol-2-yl]-N-[2-(dimethylamino)ethyl]benzamide], the IC50 in data set [1] (HOT 116, Large intestine/Colorectum) was found to be 230 nM; in data set [1] (ML-2, Blood/Leukaemia), 180 nM; in data set [1] (SVV620, Large intestine/Colorectum), 190 nM. Besides, the “cell growth inhibition compared with atropisomer A-1” value in data set [1] (all of the cell lines of the panel) is listed as “significantly more active”. In data set [2], this compound registered a solubility of under 5000 µg/mL. In addition, the “tumour volume % T/C” value in the data set on U87MG tumours was 3.85%. Besides, the remaining binding at 3 µM at PLK1 catalytic domain came to 97%. Moreover, the “tumour bioluminescent signal treated versus control” value with U87-Luc cells is “decrease in tumour signal”. Further, the “PLK4 inhibition phenotypes (centriole number)” value in data set [3] is reported as “exhibits evidence of PLK4 inhibition phenotypes”. The same compound showed a TGI with HCT116 xenograft tumours of 60%.
